Assay results from ChEMBL document CHEMBL1143740, “Conformationally locked thiosugars as potent alpha-mannosidase inhibitors: synthesis, biochemical and docking studies” (Bioorg Med Chem, 2007).

Test: Inhibition of jack bean alpha-mannosidase
Parameters: species or system Canavalia ensiformis

Compound | Ki [µM]
OC1[C@H](O)C2CSC(O2)[C@H]1O (single isomer, unassigned) [THIOLEVOMANNOSAN] | 1.38
[O-][S+]1C[C@@H]2O[C@H]1[C@@H](O)[C@H](O)[C@@H]2O (stereo partly drawn) | 0.385
O=S1(=O)C[C@@H]2O[C@H]1[C@@H](O)[C@H](O)[C@@H]2O | 0.35
